# Test results taken from PMC10027881 (Scientific Reports, 2023).
# Like-named read-outs stand apart in the source and are kept apart here.
# How the values were obtained:
# GST [1] = test: GST expression by western blotting; type: cell-based, human
# Experimental: (§1) Caco2 and hEL cells were cultured in a 100 mm^2 cell culture dish with MEM containing 10% FBS at 37 °C in a humidified atmosphere of 5% CO2. To determine the effects of the treatment conditions, hEL cells were incubated with various concentrations of B(a)P and G-Rg3 in MEM for 48 h. The cells were subjected to further analysis or harvested to prepare cell-free extracts.
# (§2) hEL cells were washed using ice-cold PBS and then lysed using radioimmunoprecipitation assay buffer containing a protease inhibitor and phosphatase inhibitors. After protein quantification using a total protein assay kit, 30 µg of protein from each sample was separated by 12% SDS‒PAGE and transferred electrophoretically onto the PVDF membrane. The membranes were blocked using 5% skim milk and then incubated with primary antibodies overnight at 4 °C. After incubation with horseradish peroxidase-conjugated secondary antibody, enhanced chemiluminescent reagent was added to visualize the binding signals. The intensity of each protein band was quantified using ImageJ software.
# GST [2] = test: GST activity assay kit; type: cell-based, human
# Experimental: hEL cells were seeded in 96-well plates at a density of 1 × 10^4 cells per well and treated with 10 µM B(a)P in the absence or presence of 10 µM G-Rg3 for 48 h. GST activity was measured using a commercial GST activity assay kit according to the manufacturer’s protocols. The relative activation of GST was measured by using a microplate reader for absorbance at 450 nm.
# Nrf2 = Nrf2 expression by western blotting; type: cell-based, human
# Experimental: as §1, §2
# Caco-2 cells = settings: cited from earlier work
# [3] = Side effects in the model mice: body weight, plasma ALT and Cr; type: in vivo, A/J mice; settings: G-Rg3 treatment groups vs control group
# Experimental: (§3) All experiments were performed in accordance with relevant guidelines and regulations, and the study was conducted in accordance with Animal Research: Reporting of in vivo Experiments (ARRIVE) guidelines. […] One week later, the mice were randomly divided into control and different treatment groups with 15 mice per group, and treatment was performed once every day via oral gavage. Following 20 weeks of treatment, the animals were sacrificed by CO2 asphyxiation. The lungs were collected and fixed for 24 h. Quantification of the surface tumor count and individual tumor size on each lung was performed under a dissecting microscope. The tumor volume (V) estimation was calculated using the following expression: V (mm^3) = 4/3πr^3, where r is the tumor diameter. The net sum of all the volumes of tumors in a mouse lung was the total tumor volume, with the mean total tumor volume per group represented the tumor load. Whole blood and intestine samples were collected and stored at − 80 °C for UPLC‒MS/MS assays. Serum was collected and analyzed for alanine transaminase (ALT) and serum creatinine (Cr) levels by an automatic biochemical analyzer to evaluate liver and kidney function.
# [4] = tested on: lung tumors induced by B(a)P in A/J mice; test: B(a)P-induced lung tumorigenesis in A/J mice, tumor load; type: in vivo; settings: G-Rg3 study, 20-weeks treatment; control 1.63 ± 0.40
# Experimental: The mice were sacrificed by CO2 asphyxiation after the 20th week of red ginseng treatment.
# as §3
# [5] = UPLC-MS/MS levels of ginsenosides in blood/plasma and intestine after 20-weeks treatment; type: in vivo, A/J mice; settings: for concentration at 20 weeks: A/J, mouse
# Experimental: All experiments were approved by the laboratory animal ethics committee of Tongji Medical College, Huazhong University of Science and Technology (approval no. 2019; file no. 4587TH). All experiments were performed in accordance with relevant guidelines and regulations, and the study was conducted in accordance with Animal Research: Reporting of in vivo Experiments (ARRIVE) guidelines. Eight-week-old A/J mice were given an initial intraperitoneal injection of B(a)P in tricaprylin (100 mg/kg in 0.2 mL). One week later, the mice were randomly divided into control and different treatment groups with 15 mice per group, and treatment was performed once every day via oral gavage. Following 20 weeks of treatment, the animals were sacrificed by CO2 asphyxiation. The lungs were collected and fixed for 24 h. Quantification of the surface tumor count and individual tumor size on each lung was performed under a dissecting microscope. The tumor volume (V) estimation was calculated using the following expression: V (mm^3) = 4/3πr^3, where r is the tumor diameter. The net sum of all the volumes of tumors in a mouse lung was the total tumor volume, with the mean total tumor volume per group represented the tumor load. Whole blood and intestine samples were collected and stored at − 80 °C for UPLC‒MS/MS assays. Serum was collected and analyzed for alanine transaminase (ALT) and serum creatinine (Cr) levels by an automatic biochemical analyzer to evaluate liver and kidney function.
# As described above, the collected samples were retrieved from cold storage, thawed, weighed, and placed in a test tube. To this, 0.5 µM phloridzin (internal standard) in 0.8 mL of methanol solution was added. Then, the tissue was homogenized using a Tissue-Tearor and the homogenate was subsequently transferred into a 1.5 mL microcentrifuge tube. The mixture was centrifuged for 15 min at 15,500 rpm. Following the removal of […] of the supernatant, nitrogen–based drying was performed. Two hundred microliters of methanol was used for reconstitution. Blood was collected and processed on the same lines and used as a reference for all measurements.
# Caco-2 monolayer = test: Transcellular transport across the Caco-2 monolayer; type: in vitro ADME; settings: for Pb-a compared with Pa-b: no verapamil
# Experimental: This assay was performed in accordance with an earlier study.
# The cells were subjected to washing using HBSS and preincubation at 37 °C following 3 weeks of culture. […] Collection of 100 µL medium was performed at the indicated times (0, 15, 30, 45, 60, 90, and 120 min), and 100 µL HBSS was added to replenish this volume. These samples were stored at […] until UPLC‒MS/MS assays. The expression Papp = dQ/(dT × A × C0) was utilized to quantify the apparent unidirectional permeability for both the apical and basolateral sides and vice versa (Pa-b and Pb-a, respectively); dQ/dT represents the concentration change, A (0.6 cm^2) represents the monolayer surface area, and C0 represents the initial donor concentration. The efflux ratio was calculated as Pb-a/Pa-b, which represents the degree of efflux transport of the study drug.
# hEL cells = test: Cell viability (MTS) assay; type: cell-based, human; settings: compound alone, 0-20 µM, 48 h
# Experimental: Caco2 and hEL cells were cultured in a 100 mm^2 cell culture dish with MEM containing 10% FBS at 37 °C in a humidified atmosphere of 5% CO2. […] The cells were subjected to further analysis or harvested to prepare cell-free extracts.
# A commercially available MTS assay kit was used, and cells were subjected to the standard protocol followed by measurement at 490 nm wavelength with a microplate reader.
# [6] = tested on: BPDE-DNA adducts in hEL cells; test: BPDE-DNA adduct formation (ELISA kit); type: cell-based, human; settings: for BPDE-DNA adduct level: 10 µM B(a)P cotreatment with 10 µM G-Rg3, 48 h; for BPDE-DNA adducts: B(a)P and G-Rg3 cotreatment
# Experimental: After treatment for 48 h, DNA was extracted from hEL cells using the QIAamp DNA Mini Kit according to the manufacturer’s protocol. BPDE-DNA adduct formation was detected using the BPDE-DNA adduct ELISA kit. The relative BPDE-DNA adduct levels were measured using a microplate reader for absorbance at 450 nm.
# [7] = tested on: rat pulmonary epithelial cells; set-up: method as in PMID 17357179; settings: in the presence of verapamil; cited from earlier work
# [8] = cited from earlier work
# [9] = verapamil 50 or 100 µM vs no verapamil
# [10] = 10 µM B(a)P cotreatment with 10 µM G-Rg3
# [11] = 10 µM B(a)P cotreatment with 10 µM G-Rg3, 48 h
smiles,measurement,setting,value
"c1ccc2c(c1)cc1ccc3cccc4ccc2c1c34 [B(a)P, benzo(a)pyrene, reference compound]",GST expression,"GST [1]; 10 µM B(a)P alone, G-Rg3r groups",59.7 ± 8.2%
same,GST expression,"GST [1]; 10 µM B(a)P alone, G-Rg3s groups",39 ± 4.5%
same,GST activity,"GST [2]; 10 µM B(a)P only, 48 h",35.7 ± 7.8%
same,level of Nrf2,"Nrf2; B(a)P only, G-Rg3r experiment",51.3 ± 6.8%
same,level of Nrf2,"Nrf2; B(a)P only, G-Rg3s experiment",41 ± 9.8%
CC(C)=CCC[C@](C)(O[C@@H]1O[C@H](CO)[C@@H](O)[C@H](O)[C@H]1O)[C@H]1CC[C@]2(C)[C@@H]1[C@H](O)C[C@@H]1[C@@]3(C)CC[C@H](O)C(C)(C)[C@@H]3CC[C@]12C [Compound K],intracellular levels spiked by a factor of,Caco-2 cells,40
"CC(C)=CCC[C@](C)(O)[C@H]1CC[C@]2(C)[C@@H]1[C@H](O)C[C@@H]1[C@@]3(C)CC[C@H](O[C@@H]4O[C@H](CO)[C@@H](O)[C@H](O)[C@H]4O[C@@H]4O[C@H](CO)[C@@H](O)[C@H](O)[C@H]4O)C(C)(C)[C@@H]3CC[C@]12C [G-Rg3, ginsenoside Rg3]",body weight loss or clinical signs of toxicity,[3],No significant body weight loss or clinical signs of toxicity
"CC(C)=CCCC(C)(O)C1CCC2(C)C1C(O)CC1C3(C)CCC(OC4OC(CO)C(O)C(O)C4OC4OC(CO)C(O)C(O)C4O)C(C)(C)C3CCC12C (stereo not shown) [G-Rg3r, ginsenoside Rg3]",tumor load,[4],0.75 ± 0.29 mm^3
same,concentration at 20 weeks,"[5]; intestine, oral, with verapamil coadministered (dose not stated), read-out: level in the intestine",1350 ± 130 ng/g
same,concentration at 20 weeks,"[5]; intestine, oral, read-out: level in the intestine",530 ± 80 ng/g
same,concentration at 20 weeks,"[5]; plasma, oral, with verapamil coadministered (dose not stated), read-out: plasma level",1170 ± 470 nM
same,concentration at 20 weeks,"[5]; plasma, oral, read-out: plasma level",440 ± 320 nM
same,Pa-b (apical to basolateral),"Caco-2 monolayer; 10 µM G-Rg3, 50 µmol/L verapamil",0.73 ± 0.06
same,Pa-b (apical to basolateral),"Caco-2 monolayer; 10 µM G-Rg3, 100 µmol/L verapamil",1.14 ± 0.09
same,Pa-b (apical to basolateral),"Caco-2 monolayer; 10 µM G-Rg3, no verapamil",0.38 ± 0.06
same,Pb-a compared with Pa-b,Caco-2 monolayer,significantly higher
same,average Pb-a after verapamil treatment,Caco-2 monolayer; [9],significant decrease
same,cytotoxicity on hEL cells,hEL cells,nontoxic
same,BPDE-DNA adduct level,[6],1.87 ± 0.33
same,BPDE-DNA adducts,[6]; control siRNA group,1.47 ± 0.21
same,BPDE-DNA adducts,[6]; siNrf2 group,3.0 ± 0.21
same,GST expression,GST [1]; [10],103.7 ± 15.5%
same,GST activity,GST [2]; [11],96.3 ± 6.6%
same,level of Nrf2,Nrf2; B(a)P-G-Rg3 cotreatment,106 ± 9.5%
"CC(C)=CCCC(C)(O)C1CCC2(C)C1C(O)CC1C3(C)CCC(OC4OC(CO)C(O)C(O)C4OC4OC(CO)C(O)C(O)C4O)C(C)(C)C3CCC12C (stereo not shown) [G-Rg3s, ginsenoside Rg3]",tumor load,[4],0.81 ± 0.30 mm^3
same,"plasma and intestine levels when verapamil was coadministered, in words",[5]; after 20-weeks treatment,followed a similar pattern
same,Pb-a compared with Pa-b,Caco-2 monolayer,significantly higher
same,average Pb-a after verapamil treatment,Caco-2 monolayer; [9],significant decrease
same,"transport (Pa-b) after verapamil treatment, in words",Caco-2 monolayer; [9],followed a similar pattern
same,cytotoxicity on hEL cells,hEL cells,nontoxic
same,BPDE-DNA adduct level,[6],1.93 ± 0.48
same,BPDE-DNA adducts,[6]; control siRNA group,1.8 ± 0.32
same,BPDE-DNA adducts,[6]; siNrf2 group,3.6 ± 0.45
same,GST expression,GST [1]; [10],110 ± 11.1%
same,GST activity,GST [2]; [11],92.3 ± 6.5%
same,level of Nrf2,Nrf2; B(a)P-G-Rg3 cotreatment,117 ± 6.2%
CC(C)=CCC[C@](C)(O[C@@H]1O[C@H](CO)[C@@H](O)[C@H](O)[C@H]1O)[C@H]1CC[C@]2(C)[C@@H]1[C@H](O)C[C@@H]1[C@@]3(C)CC[C@H](O)C(C)(C)[C@@H]3[C@@H](O[C@@H]3O[C@H](CO)[C@@H](O)[C@H](O)[C@H]3O)C[C@]12C [Rg1],levels in rat pulmonary epithelial cells,[7],increased
CC(C)=CC/C=C(\C)[C@H]1CC[C@]2(C)[C@@H]1[C@H](O)C[C@@H]1[C@@]3(C)CC[C@H](O[C@@H]4O[C@H](CO)[C@@H](O)[C@H](O)[C@H]4O[C@@H]4O[C@H](CO)[C@@H](O)[C@H](O)[C@H]4O)C(C)(C)[C@@H]3CC[C@]12C [Rg5],ginsenoside in the blood,"[5]; after 20-weeks KRGB treatment, oral",0.0063 ± 0.0005 µg/mL
CC(C)=CCC[C@](C)(O)[C@H]1CC[C@]2(C)[C@@H]1[C@H](O)C[C@@H]1[C@@]3(C)CC[C@H](O[C@@H]4O[C@H](CO)[C@@H](O)[C@H](O)[C@H]4O)C(C)(C)[C@@H]3CC[C@]12C [ginsenoside Rh2],bioavailability,"[8]; initial value, without cyclosporine A",1%
same,bioavailability,[8]; with cyclosporine A treatment,more than 30%
